Experimental data from US20260158125A1, “PEPTIDE VACCINE” (ARGONAUT THERAPEUTICS LIMITED, priority 2021, published 2026).

Test system: splenocytes (IFN y activated T cells)
Test: Immunogenicity assay: peptide vaccination and interferon gamma ELispot of splenocytes
Type: in vivo
Details: Balb/c mice vaccinated day 0 and 7, 50 μg/peptide with polyIC and anti-CD40; splenocytes restimulated at 15 μg/ml
Experimental: Groups of 8 week old Balb/c mice (Charles River) were vaccinated i.v with the indicated peptide mix (Table 2), (50 μg/peptide (GenScript)) with 30 μg polyIC and 25 μg anti-CD40 mAb). As a positive control AH peptide (SPSYVYHQF SEQ ID NO: 156) vaccination was used (Huang et al., 1996). Vehicle-only mice were vaccinated with DMSO/PBS plus adjuvants as above. Mice were boosted i.v. 7 days later with the same formulation. Mice were culled 7 days post-boost and their spleens removed (4 mice per group). All animals were housed in specific pathogen-free conditions at the Biomedical Services Building (University of Oxford). All work was performed under UK Home Office license PPL PP3430109 in accordance with the UK Animal (Scientific Procedures) Act 1986. All work was performed by trained and licensed individuals.
The day before culling, Merk Multiscreen 96 well Filter Plates (Merck) were incubated with primary antibody (anti-mouse INFy mAb clone AN18, Mabtech) diluted in sterile PBS (Gibco), at 4° C. […] The splenocyte pellet was resuspended in 5 ml R10, counted and the cell concentration adjusted to 4×10^5/ml. […] The spots were quantitated on an ELISPOT counter (AID, Germany).

**Q.** SPSYVYHQF (AH1 peptide) [AHI1] was tested. Which “immunogenicity (IFN y activated T cells, ELISpot)” value did it give?
**A.** The value was “positive immunogenic control”.
